The values that follow come from patent US7183295B2, “PPAR-activating compound and pharmaceutical composition comprising the compound” (Kowa Co., Ltd., priority 2003, dated 2007).

pEC50: −log10 of the molar value. A value given as a limit tells only on which side of the number the result lay.

Holding throughout (type): cell-based
For test [1], the target named is T1, human PPARα (166–467aa) ligand binding domain (Homo sapiens, UniProt Q07869).
T1 construct: human PPARα (166–467aa); expressed in transfected cells; host or cells: COS-7
T1 sequence (Q07869 166-467): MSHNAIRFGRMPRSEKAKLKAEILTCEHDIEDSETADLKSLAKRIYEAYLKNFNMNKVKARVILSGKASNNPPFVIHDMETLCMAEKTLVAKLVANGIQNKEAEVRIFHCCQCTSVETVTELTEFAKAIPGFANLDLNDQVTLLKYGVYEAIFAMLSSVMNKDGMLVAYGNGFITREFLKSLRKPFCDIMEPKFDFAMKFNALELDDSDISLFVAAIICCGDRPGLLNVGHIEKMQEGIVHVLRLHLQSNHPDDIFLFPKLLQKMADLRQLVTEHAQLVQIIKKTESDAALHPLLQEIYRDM
Kind of test: PPAR transfection (Gal4-LBD luciferase reporter) assay, hPPARα. The following applies: transfected COS-7 cells, 16 hours, luciferase activity; read-out: hPPAR; EC50 α (agonist activity). The method, boiled down: (§1)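 COS-7 cells transiently co-transfected with Gal4-LBD expression plasmid, firefly luciferase reporter and β-galactosidase control. Compound exposure 16 h in DMEM with 0.2% FCS, 0.1% DMSO final. Luciferase read in lysates, normalized to β-galactosidase activity.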
A general note: In a reporter assay the amount or activity of a reporter protein is the signal.

Test [2] addresses T2, human PPARδ (137–441aa) ligand binding domain (Homo sapiens, UniProt Q03181).
T2 construct: δ (137–441aa); expressed in transfected cells; host or cells: COS-7
T2 sequence (Q03181 137-441): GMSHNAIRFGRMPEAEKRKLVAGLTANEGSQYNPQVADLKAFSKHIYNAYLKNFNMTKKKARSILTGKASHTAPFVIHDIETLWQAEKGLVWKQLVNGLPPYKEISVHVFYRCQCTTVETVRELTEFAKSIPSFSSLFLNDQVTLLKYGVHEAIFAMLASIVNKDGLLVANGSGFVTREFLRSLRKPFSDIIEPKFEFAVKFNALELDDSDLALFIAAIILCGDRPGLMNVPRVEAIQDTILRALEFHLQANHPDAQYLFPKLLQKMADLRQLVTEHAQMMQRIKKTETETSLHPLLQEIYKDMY
The test is described as follows: PPAR transfection (Gal4-LBD luciferase reporter) assay, hPPARδ. The following applies: transfected COS-7 cells, 16 hours, luciferase activity; read-out: hPPAR; EC50 δ (agonist activity). Summed up:
as §1

In test [3] the target is T3, human PPARγ (182–505aa) ligand binding domain (Homo sapiens, UniProt P37231).
T3 construct: γ(182–505aa); expressed in transfected cells; host or cells: COS-7
T3 sequence (P37231 182-505): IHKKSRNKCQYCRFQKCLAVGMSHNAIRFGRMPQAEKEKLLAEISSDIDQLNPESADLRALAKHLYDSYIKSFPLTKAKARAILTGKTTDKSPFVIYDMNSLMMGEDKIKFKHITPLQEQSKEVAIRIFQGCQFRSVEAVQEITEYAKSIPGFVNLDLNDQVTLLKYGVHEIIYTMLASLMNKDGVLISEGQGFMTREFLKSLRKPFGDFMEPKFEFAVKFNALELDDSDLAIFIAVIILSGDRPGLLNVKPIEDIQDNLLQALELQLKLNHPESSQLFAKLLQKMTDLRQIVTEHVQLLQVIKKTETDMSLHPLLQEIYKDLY
The test is described as follows: PPAR transfection (Gal4-LBD luciferase reporter) assay, hPPARγ. The following applies: transfected COS-7 cells, 16 hours, luciferase activity; read-out: hPPAR; EC50 γ (agonist activity). The method, boiled down:
as §1

For `CCC(Oc1cccc(CCN(CCCOc2ccc(Cl)cc2)c2nc3ccccc3o2)c1)C(=O)O` (stereo not drawn) [Example 53, 2-[3-[2-[N-(Benzoxazol-2-yl)-N-3-(4-chlorophenoxy)propyl]aminoethyl]phenoxy]butyric acid], the results for the pEC50 in test [1], in test [2] and in test [3] were 7.22, 5.72 and 5.41, respectively.

Take `CCC(Oc1cccc(CCN(CCOc2ccc(OC)cc2)c2nc3ccccc3o2)c1)C(=O)O` (stereo not drawn) [Example 45, 2-[3-[2-[N-(Benzoxazol-2-yl)-N-2-(4-methoxyphenoxy)ethyl]aminoethyl]phenoxy]butyric acid]: the pEC50 in test [1] was 8.00; in test [2], 5.74; in test [3], 5.20.

As to `CC(Oc1cccc(CCN(CCOc2ccc(F)cc2)c2nc3ccccc3o2)c1)C(=O)O` (stereo not drawn) [Example 34, 2-[3-[2-[N-(Benzoxazol-2-yl)-N-2-(4-fluorophenoxy)ethyl]aminoethyl]phenoxy]propionic acid], the pEC50 was 7.22 in test [1], 5.80 in test [2] and 5.92 in test [3].

As for `COc1ccc(OCCCN(Cc2cccc(OC(C)C(=O)O)c2)c2nc3ccccc3s2)cc1` (stereo not drawn) [Example 96], the results for the pEC50 in test [1], in test [2] and in test [3] were 9.00, 5.92 and 5.96, respectively.

In the case of `CC[C@@H](Oc1cccc(CN(CCCOc2ccccc2)c2nc3ccccc3o2)c1)C(=O)O` [Example 83, (R)-2-[[3-[N-(Benzoxazol-2-yl)-N-3-phenoxypropyl]aminomethyl]phenoxy]butyric acid], the pEC50 is 8.70 in test [1], 5.80 in test [2] and 6.04 in test [3].

As for `CCC(Oc1cccc(CCN(CCCOc2ccc(Cl)cc2)c2nc3cc(OC)ccc3o2)c1)C(=O)O` (stereo not drawn) [Example 52, 2-[3-[2-[N-3-(4-Chlorophenoxy)propyl-N-(5-methoxybenzoxazol-2-yl)]aminoethyl]phenoxy]butyric acid], the pEC50 is 8.00 in test [1], 6.40 in test [2] and 5.70 in test [3].

In the case of `CCC(Oc1cccc(CN(CCOc2ccccc2)c2nc3ccccc3o2)c1)C(=O)O` (stereo not drawn) [Example 24, 2-[3-[[N-(Benzoxazol-2-yl)-N-2-phenoxyethyl]aminomethyl]phenoxy]butyric acid], the pEC50 in test [1] was 7.52; in test [2], 5.64; in test [3] it was 5.85.

As for `CC(Oc1cccc(CN(CCCOc2ccccc2)c2nc3cc4c(cc3o2)OCO4)c1)C(=O)O` (stereo not drawn) [Example 159], the pEC50 in test [1] is 8.05; in test [2], 5.82; in test [3], less than 5.00.

For the compound `CC(Oc1cccc(CCN(CCOc2ccccc2)c2nc3ccccc3o2)c1)C(=O)O` (stereo not drawn) [Example 31, 2-[3-[2-[N-(Benzoxazol-2-yl)-N-2-phenoxyethyl]aminoethyl]phenoxy]propionic acid], the results for the pEC50 in test [1], in test [2] and in test [3] were 7.05, less than 4.30 and less than 4.00, respectively.

`CC(Oc1cccc(CN(CCCC(=O)c2ccccc2)c2nc3ccccc3o2)c1)C(=O)O` (stereo not drawn) [Example 93, 2-[3-[[N-(Benzoxazol-2-yl)-N-(4-oxo-4-phenylbutyl)]aminomethyl]phenoxy]propionic acid]: the pEC50 was 8.05 in test [1], 5.29 in test [2] and less than 5.00 in test [3].
